Tests used:
[1] = 303.15 K, 101.33 kPa, Liquid; for viscosity: Capillary tube (Ostwald / Ubbelohde) method; for mass density: Vibrating tube method
[2] = xn = mol fraction of the nth substance listed; details: 303.15 K, 101.33 kPa, Liquid; for viscosity: Capillary tube (Ostwald / Ubbelohde) method; for mass density: Vibrating tube method

ClC(Cl)Cl [trichloromethane]
[1]
Details	mass density [kg/m3]	viscosity [mPa·s]
–	1470.5	0.5118

ClC(Cl)(Cl)Cl [tetrachloromethane]
[1]
Details	mass density [kg/m3]	viscosity [mPa·s]
–	1575	0.8403

ClCCl [dichloromethane]
[1]
Details	mass density [kg/m3]	viscosity [mPa·s]
–	1307.6	0.3929

ClC(Cl)(Cl)Cl [tetrachloromethane] + ClC(Cl)Cl
[2]
Details	mass density [kg/m3]	viscosity [mPa·s]
x1 = 0.0591	1477.2	0.5216
x1 = 0.075	1479	0.5248
x1 = 0.1297	1485.1	0.5343
x1 = 0.2236	1495.3	0.5538
x1 = 0.2777	1501.2	0.5658
x1 = 0.3416	1508.1	0.5811
x1 = 0.434	1517.9	0.6041
x1 = 0.4886	1523.6	0.6201
x1 = 0.5736	1532.5	0.6486
x1 = 0.6646	1541.8	0.6807
x1 = 0.7747	1552.9	0.7256
x1 = 0.8186	1557.3	0.7458
x1 = 0.8904	1564.4	0.7804
x1 = 0.9305	1568.3	0.8017

ClCCl [dichloromethane] + ClC(Cl)Cl
[2]
Details	mass density [kg/m3]	viscosity [mPa·s]
x1 = 0.0633	1462.3	0.504
x1 = 0.1191	1454.8	0.4976
x1 = 0.1924	1444.7	0.4892
x1 = 0.3101	1427.8	0.4741
x1 = 0.3607	1420.3	0.4686
x1 = 0.4299	1409.7	0.4602
x1 = 0.5221	1395.1	0.4501
x1 = 0.6464	1374.3	0.4352
x1 = 0.6833	1367.8	0.4301
x1 = 0.74	1357.8	0.4236
x1 = 0.7979	1347.1	0.4163
x1 = 0.8681	1333.9	0.4083
x1 = 0.9034	1327	0.404
x1 = 0.9358	1320.6	0.4005

ClC(Cl)(Cl)Cl [tetrachloromethane] + ClCCl
[2]
Details	mass density [kg/m3]	viscosity [mPa·s]
x1 = 0.0375	1321.5	0.4008
x1 = 0.0622	1330.4	0.4061
x1 = 0.0791	1336.4	0.4097
x1 = 0.0889	1339.9	0.412
x1 = 0.1254	1352.4	0.421
x1 = 0.2047	1378.4	0.441
x1 = 0.2305	1386.5	0.4479
x1 = 0.297	1406.7	0.4669
x1 = 0.3695	1427.7	0.4897
x1 = 0.4985	1462.5	0.5369
x1 = 0.4986	1462.5	0.5374
x1 = 0.4997	1462.8	0.5375
x1 = 0.5631	1478.9	0.564
x1 = 0.609	1490.1	0.5853
x1 = 0.6845	1508	0.6223
x1 = 0.8006	1533.9	0.6894
x1 = 0.8032	1534.5	0.6915
x1 = 0.8652	1547.7	0.7331
x1 = 0.9279	1560.7	0.7792
x1 = 0.9677	1568.6	0.8116
